# Measured values taken from the supplement of paper PMC11061612.
# Columns and labels:
# [1] = test system: HCC-44 (Lung Adenocarcinoma); experiment: Bliss excess, mean over the matrix (fraction); higher = more synergy
# Summary of the method: (§1)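 Cell lines grown in DMEM/F12 or RPMI with 10% FBS were plated in 1536-well plates and held 24 hours at 37°C, 5% CO2 before 72 hours of exposure to two-drug dose matrices, with DMSO typically at 0.2%. CellTiter-Glo 2.0 luminescence gave viability, which was converted to inhibition. Vehicle wells were set to 0 and blank wells to 1. Combination Emax is the second-highest inhibition in the matrix, and Bliss excess is the observed combination effect minus the expected EA + EB − EA·EB, where EA and EB are the single-agent effects.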
# [2] = test system: HCC-44 (Lung Adenocarcinoma); experiment: combination Emax (second highest fraction inhibited in the dose matrix, 72 h); higher = more inhibition; extreme values may be limits of the assay
# Summary of the method: as §1
# 786-0 (Kidney Carcinoma) = experiment: as above
# Summary of the method: as §1
# [3] = test system: RMG-I (Ovarian Carcinoma); experiment: as above
# Summary of the method: as §1
# [4] = test system: NKM-1 (Acute Myeloid Leukemia); experiment: as above
# Summary of the method: as §1
# [5] = test system: FLO-1 (Esophageal Adenocarcinoma); experiment: as above
# Summary of the method: as §1
# 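Wherever Bliss excess, mean over the matrix is given: after 72 h of two-drug dosing.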
smiles,measurement,setting,value
"CN(C)CCCOc1ccc(-c2ccc3ncc4c(c3c2)n(C2CCOCC2)c(=O)n4C)cn1 [AZD0156] + O=C(c1cc(Cc2n[nH]c(=O)c3ccccc23)ccc1F)N1CCN(C(=O)C2CC2)CC1 [Olaparib] (first compound max 3 µM, partner max 3 µM)",Bliss excess,[1],0.0947
same,combination Emax,[2],0.456
same,combination Emax,786-0 (Kidney Carcinoma),0.223
same,combination Emax,[3],0.29
same,combination Emax,[4],0.585
same,combination Emax,[5],0.289
"C=CCn1c(=O)c2cnc(Nc3ccc(N4CCN(C)CC4)cc3)nc2n1-c1cccc(C(C)(C)O)n1 [AZD1775] + C1CN(CCC1(C(=O)N[C@@H](CCO)C2=CC=C(C=C2)Cl)N)C3=NC=NC4=C3C=CN4 [Capivasertib] (first compound max 3 µM, partner max 3 µM)",Bliss excess,[1],-0.0109
same,combination Emax,[2],0.844
same,combination Emax,786-0 (Kidney Carcinoma),0.817
same,combination Emax,[3],0.47
same,combination Emax,[4],0.954
same,combination Emax,[5],0.921
"COc1nnc2ccc(N3CCC(c4ccc(OCCN5CCN(C)C(=O)[C@H]5C)cc4)CC3)nn12 [AZD5153] + C=CCn1c(=O)c2cnc(Nc3ccc(N4CCN(C)CC4)cc3)nc2n1-c1cccc(C(C)(C)O)n1 [AZD1775] (first compound max 1 µM, partner max 1 µM)",Bliss excess,[1],-0.0787
same,combination Emax,[2],0.63
same,combination Emax,786-0 (Kidney Carcinoma),0.641
same,combination Emax,[3],0.592
same,combination Emax,[4],0.904
same,combination Emax,[5],0.888
"COc1nnc2ccc(N3CCC(c4ccc(OCCN5CCN(C)C(=O)[C@H]5C)cc4)CC3)nn12 [AZD5153] + CC1(C)CCC(CN2CCN(c3ccc(C(=O)NS(=O)(=O)c4ccc(NCC5CCOCC5)c([N+](=O)[O-])c4)c(Oc4cnc5[nH]ccc5c4)c3)CC2)=C(c2ccc(Cl)cc2)C1 [Venetoclax] (first compound max 1 µM, 7x7, partner max 1 µM)",Bliss excess,[1],-0.0395
same,combination Emax,[2],0.615
same,combination Emax,786-0 (Kidney Carcinoma),0.503
same,combination Emax,[3],0.599
same,combination Emax,[4],0.978
same,combination Emax,[5],0.51
"COc1nnc2ccc(N3CCC(c4ccc(OCCN5CCN(C)C(=O)[C@H]5C)cc4)CC3)nn12 [AZD5153] + CCN(CCO)CCCOc1ccc2c(Nc3cc(CC(=O)Nc4cccc(F)c4)[nH]n3)ncnc2c1 [AZD2811] (first compound max 1 µM, 7x7, partner max 1 µM)",Bliss excess,[1],-0.0338
same,combination Emax,[2],0.617
same,combination Emax,786-0 (Kidney Carcinoma),0.552
same,combination Emax,[3],0.546
same,combination Emax,[4],0.922
same,combination Emax,[5],0.565
"COc1nnc2ccc(N3CCC(c4ccc(OCCN5CCN(C)C(=O)[C@H]5C)cc4)CC3)nn12 [AZD5153] + C[C@@H]1COCCN1C2=NC(=NC(=C2)C3(CC3)[S@](=N)(=O)C)C4=C5C=CNC5=NC=C4 [AZD6738] (first compound max 1 µM, 7x7, partner max 10 µM)",Bliss excess,[1],0.0139
same,combination Emax,[2],0.726
same,combination Emax,786-0 (Kidney Carcinoma),0.754
same,combination Emax,[3],0.561
same,combination Emax,[4],0.98
same,combination Emax,[5],0.823
"COc1nnc2ccc(N3CCC(c4ccc(OCCN5CCN(C)C(=O)[C@H]5C)cc4)CC3)nn12 [AZD5153] + Cc1c2c(nn1C)CSCc1cc(n(C)n1)CSc1cc(c3ccccc3c1)OCCCc1c(C(=O)O)n(C)c3c-2c(Cl)ccc13 [AZD5991] (first compound max 1 µM, 7x7, partner max 1 µM)",Bliss excess,[1],-0.0332
same,combination Emax,[2],0.756
same,combination Emax,786-0 (Kidney Carcinoma),0.557
same,combination Emax,[3],0.58
same,combination Emax,[4],1
same,combination Emax,[5],0.717
"COc1nnc2ccc(N3CCC(c4ccc(OCCN5CCN(C)C(=O)[C@H]5C)cc4)CC3)nn12 [AZD5153] + Cn1cnc2c(F)c(Nc3ccc(Br)cc3Cl)c(C(=O)NOCCO)cc21 [Selumetinib] (first compound max 1 µM, 7x7, partner max 10 µM)",Bliss excess,[1],0.0636
same,combination Emax,[2],0.728
same,combination Emax,786-0 (Kidney Carcinoma),0.577
same,combination Emax,[3],0.571
same,combination Emax,[4],0.995
same,combination Emax,[5],0.635
"NC1(C(=O)N[C@@H](CCO)c2ccc(Cl)cc2)CCN(c2ncnc3[nH]ccc23)CC1 [Capivasertib] + CC(=O)c1c(C)c2cnc(Nc3ccc(N4CCNCC4)cn3)nc2n(C2CCCC2)c1=O [Palbociclib] (first compound max 10 µM, 7x7, partner max 10 µM)",Bliss excess,[1],-0.0161
same,combination Emax,[2],0.641
same,combination Emax,786-0 (Kidney Carcinoma),0.681
same,combination Emax,[3],0.288
same,combination Emax,[4],0.796
same,combination Emax,[5],0.551
"NC1(C(=O)N[C@@H](CCO)c2ccc(Cl)cc2)CCN(c2ncnc3[nH]ccc23)CC1 [Capivasertib] + CC(C)n1c(=O)n(C)c2cnc3cc(F)c(-c4ccc(OCCCN5CCCCC5)nc4)cc3c21 [AZD1390] (first compound max 10 µM, 7x7, partner max 0.3 µM)",Bliss excess,[1],-0.0359
same,combination Emax,[2],0.602
same,combination Emax,786-0 (Kidney Carcinoma),0.489
same,combination Emax,[3],0.292
same,combination Emax,[4],0.459
same,combination Emax,[5],0.346
"NC1(C(=O)N[C@@H](CCO)c2ccc(Cl)cc2)CCN(c2ncnc3[nH]ccc23)CC1 [Capivasertib] + CCN(CCO)CCCOc1ccc2c(Nc3cc(CC(=O)Nc4cccc(F)c4)[nH]n3)ncnc2c1 [AZD2811] (first compound max 10 µM, 7x7, partner max 1 µM)",Bliss excess,[1],-0.0388
same,combination Emax,[2],0.663
same,combination Emax,786-0 (Kidney Carcinoma),0.553
same,combination Emax,[3],0.315
same,combination Emax,[4],0.779
same,combination Emax,[5],0.415
"NC1(C(=O)N[C@@H](CCO)c2ccc(Cl)cc2)CCN(c2ncnc3[nH]ccc23)CC1 [Capivasertib] + COc1nnc2ccc(N3CCC(c4ccc(OCCN5CCN(C)C(=O)[C@H]5C)cc4)CC3)nn12 [AZD5153] (first compound max 10 µM, 7x7, partner max 1 µM)",Bliss excess,[1],-0.0278
same,combination Emax,[2],0.704
same,combination Emax,786-0 (Kidney Carcinoma),0.733
same,combination Emax,[3],0.456
same,combination Emax,[4],1
same,combination Emax,[5],0.612
"NC1(C(=O)N[C@@H](CCO)c2ccc(Cl)cc2)CCN(c2ncnc3[nH]ccc23)CC1 [Capivasertib] + C[C@@H]1COCCN1C2=NC(=NC(=C2)C3(CC3)[S@](=N)(=O)C)C4=C5C=CNC5=NC=C4 [AZD6738] (first compound max 10 µM, 7x7, partner max 10 µM)",Bliss excess,[1],-0.0298
same,combination Emax,[2],0.661
same,combination Emax,786-0 (Kidney Carcinoma),0.809
same,combination Emax,[3],0.385
same,combination Emax,[4],0.933
same,combination Emax,[5],0.652
"NC1(C(=O)N[C@@H](CCO)c2ccc(Cl)cc2)CCN(c2ncnc3[nH]ccc23)CC1 [Capivasertib] + Cn1cnc2c(F)c(Nc3ccc(Br)cc3Cl)c(C(=O)NOCCO)cc21 [Selumetinib] (first compound max 10 µM, 7x7, partner max 10 µM)",Bliss excess,[1],0.106
same,combination Emax,[2],0.824
same,combination Emax,786-0 (Kidney Carcinoma),0.696
same,combination Emax,[3],0.392
same,combination Emax,[4],0.965
same,combination Emax,[5],0.559
"Cc1nc(Nc2ncc(C(=O)Nc3c(C)cccc3Cl)s2)cc(N2CCN(CCO)CC2)n1 [Dasatinib] + CC(=O)Nc1cccc(-n2c(=O)n(C3CC3)c(=O)c3c(Nc4ccc(I)cc4F)n(C)c(=O)c(C)c32)c1 [Trametinib] (first compound max 2 µM, 7x7, partner max 1 µM)",Bliss excess,[1],0.0359
same,combination Emax,[2],0.955
same,combination Emax,786-0 (Kidney Carcinoma),0.642
same,combination Emax,[3],0.505
same,combination Emax,[4],0.899
same,combination Emax,[5],0.966
"COc1cc2ncnc(Nc3ccc(F)c(Cl)c3)c2cc1OCCCN1CCOCC1 [Gefitinib] + CC(C)n1c(=O)n(C)c2cnc3cc(F)c(-c4ccc(OCCCN5CCCCC5)nc4)cc3c21 [AZD1390] (first compound max 10 µM, 7x7, partner max 0.3 µM)",Bliss excess,[1],-0.0387
same,combination Emax,[2],0.121
same,combination Emax,786-0 (Kidney Carcinoma),0.247
same,combination Emax,[3],0.413
same,combination Emax,[4],0.167
same,combination Emax,[5],0.357
"CS(=O)(=O)CCNCc1ccc(-c2ccc3ncnc(Nc4ccc(OCc5cccc(F)c5)c(Cl)c4)c3c2)o1 [Lapatinib] + C[C@@H](Oc1cc(-c2cnn(C3CCNCC3)c2)cnc1N)c1c(Cl)ccc(F)c1Cl [Crizotinib] (first compound max 10 µM, 7x7, partner max 10 µM)",Bliss excess,[1],-0.0384
same,combination Emax,[2],0.939
same,combination Emax,786-0 (Kidney Carcinoma),0.992
same,combination Emax,[3],0.851
same,combination Emax,[4],0.965
same,combination Emax,[5],0.881
"CC(=O)c1c(C)c2cnc(Nc3ccc(N4CCNCC4)cn3)nc2n(C2CCCC2)c1=O [Palbociclib] + CC1(C)CCC(CN2CCN(c3ccc(C(=O)NS(=O)(=O)c4ccc(NCC5CCOCC5)c([N+](=O)[O-])c4)c(Oc4cnc5[nH]ccc5c4)c3)CC2)=C(c2ccc(Cl)cc2)C1 [Venetoclax] (first compound max 10 µM, 7x7, partner max 1 µM)",Bliss excess,[1],-0.0374
same,combination Emax,[2],0.0628
same,combination Emax,786-0 (Kidney Carcinoma),0.411
same,combination Emax,[3],0.277
same,combination Emax,[4],0.946
same,combination Emax,[5],0.495
"CC(=O)c1c(C)c2cnc(Nc3ccc(N4CCNCC4)cn3)nc2n(C2CCCC2)c1=O [Palbociclib] + Cc1c2c(nn1C)CSCc1cc(n(C)n1)CSc1cc(c3ccccc3c1)OCCCc1c(C(=O)O)n(C)c3c-2c(Cl)ccc13 [AZD5991] (first compound max 10 µM, 7x7, partner max 1 µM)",Bliss excess,[1],-0.0224
same,combination Emax,[2],0.169
same,combination Emax,786-0 (Kidney Carcinoma),0.489
same,combination Emax,[3],0.306
same,combination Emax,[4],0.994
same,combination Emax,[5],0.603
"CC1(C)CCC(CN2CCN(c3ccc(C(=O)NS(=O)(=O)c4ccc(NCC5CCOCC5)c([N+](=O)[O-])c4)c(Oc4cnc5[nH]ccc5c4)c3)CC2)=C(c2ccc(Cl)cc2)C1 [Venetoclax] + C[C@@H]1COCCN1C2=NC(=NC(=C2)C3(CC3)[S@](=N)(=O)C)C4=C5C=CNC5=NC=C4 [AZD6738] (first compound max 1 µM, 7x7, partner max 10 µM)",combination Emax,786-0 (Kidney Carcinoma),0.712
same,combination Emax,[3],0.545
same,combination Emax,[4],1
same,combination Emax,[5],0.559
"CC1(C)CCC(CN2CCN(c3ccc(C(=O)NS(=O)(=O)c4ccc(NCC5CCOCC5)c([N+](=O)[O-])c4)c(Oc4cnc5[nH]ccc5c4)c3)CC2)=C(c2ccc(Cl)cc2)C1 [Venetoclax] + C[C@@H](Nc1cc(F)cc(F)c1)c1cc(C(=O)N(C)C)cc2c(=O)cc(N3CCOCC3)oc12 [AZD8186] (first compound max 1 µM, 7x7, partner max 3 µM)",combination Emax,786-0 (Kidney Carcinoma),0.267
same,combination Emax,[3],0.277
same,combination Emax,[4],1
same,combination Emax,[5],0.543
"CC1(C)CCC(CN2CCN(c3ccc(C(=O)NS(=O)(=O)c4ccc(NCC5CCOCC5)c([N+](=O)[O-])c4)c(Oc4cnc5[nH]ccc5c4)c3)CC2)=C(c2ccc(Cl)cc2)C1 [Venetoclax] + Cc1cc2ncnn2cc1Nc1ncc2c(n1)n(C1CCOCC1)c(=O)n2C [AZD7648] (first compound max 1 µM, 7x7, partner max 10 µM)",combination Emax,786-0 (Kidney Carcinoma),0.136
same,combination Emax,[3],0.312
same,combination Emax,[4],0.959
same,combination Emax,[5],0.249
"CC1(C)CCC(CN2CCN(c3ccc(C(=O)NS(=O)(=O)c4ccc(NCC5CCOCC5)c([N+](=O)[O-])c4)c(Oc4cnc5[nH]ccc5c4)c3)CC2)=C(c2ccc(Cl)cc2)C1 [Venetoclax] + Cn1cnc2c(F)c(Nc3ccc(Br)cc3Cl)c(C(=O)NOCCO)cc21 [Selumetinib] (first compound max 1 µM, 7x7, partner max 3 µM)",combination Emax,786-0 (Kidney Carcinoma),0.16
same,combination Emax,[3],0.267
same,combination Emax,[4],0.975
same,combination Emax,[5],0.319
